In publication PMC3391680, “Selective and Specific Inhibition of the Plasmodium falciparum Lysyl-tRNA Synthetase by the Fungal Secondary Metabolite Cladosporin” (Cell Host & Microbe, 2012):
Where two headings read alike, the source gives them in different places. *1 amine or outer side, *2 acyl side, *3 side chain or, on linkers, in order; H or OH if unused. Where a SMILES comes first, the peptide text is derived from it. [ ]: non-standard residue; d: D form. X1 = CC(C)([C@@H]1CO1)n1cc([C@@H](O)[C@H](CC(=O)[*:2])N[*:1])c2ccccc21; NMeLeu(5-OH,4R) = CN[C@@H](C[C@@H](C)CO)C(=O)O; Nle(4R-Me-5-ene) = C=C[C@H](C)C[C@H](N)C(=O)O; Phe(βR-OMe) = CO[C@H](c1ccccc1)[C@H](N)C(=O)O; NMeL = CN[C@@H](CC(C)C)C(=O)O

How the values were obtained:
[1] = system: T1, Plasmodium falciparum Dd2; test: microbe, parasite or virus in culture; design: species or system Plasmodium falciparum Dd2 in human erythrocytes; Asexual blood-stage parasite proliferation, SYBR Green I DNA fluorescence; details: DD2, Erythrocyte, 72 h, read-out: IC50 values (nM)
T1 construct: Dd2
Protocol: Powershot G10 camera attached to the microscope and imported in Adobe Photoshop and Illustrator for image sizing and figure generation, respectively. SYBR Green cell proliferation assay. Compounds were tested for activity against asexual blood stage parasites using a previously described screening method (Plouffe et al., 2008). […] Toxoplasma gondii culturing and assay methods. The tachyzoite stage of Toxoplasma gondii (RH1, GFP-luc) was maintained by serial passage in human foreskin fibroblasts (HFF) cultured in Hank’s Buffered Salt Solution (HBSS) supplemented with 10% FBS, 2 mM L-glutamine, and 100 μg penicillin/100 μg streptomycin per milliliter maintained at 37 °C and 5% CO2. Parasites were harvested for use in assays by syringe lysis of infected HFF monolayers. Parasites were then centrifuged at 1,200 × g for 6 min and resuspended in HBSS supplemented with 10 mM Hepes, pH 7.0, and 1% (v/v) dialyzed FBS. All buffers were filter sterilized by passage through a […] Millipore Syringe Filter. Approximately 50,000 parasites and 5,000 HFF cell were incubated with compounds for 48 hours at 37 °C. Parasite and host cell proliferation rates were then determined using Bright-Glo® and CellTiter-Glo® (Promega). Maintenance, synchronization and imaging of erythrocytic stage P. falciparum cultures. A clonal stock of the P. falciparum line Dd2 (parental clone) was established by limiting dilution from a Dd2 isolate (MRA-156) obtained from the Malaria Research and Reference Reagent Resource Center (MR4; American Type Culture Collection), and used throughout these studies. All P. falciparum parasites were cultured in human erythrocytes and complete culturing media (CM) as previously described (Dharia et al., 2009). Highly synchronous cultures were achieved using the sorbitol synchronization method (Lambros and Vanderberg, 1979). Visualization of parasites were performed on Giemsa-stained thin blood smears under a 100x oil immersion objective on a Zeiss Primo Star light microscope. Digital images were captured using a Canon

[2] = molecular target: T2, human lysyl-tRNA synthetase (human Krs1) (Homo sapiens, UniProt Q15046); test: Transcreener AMP fluorescence polarization aminoacylation assay with recombinant enzyme; weak inhibition; type: biochemical
T2 construct: gene KARS1; purified recombinant human enzyme (Origene TP300311)
T2 sequence (Q15046 2-597): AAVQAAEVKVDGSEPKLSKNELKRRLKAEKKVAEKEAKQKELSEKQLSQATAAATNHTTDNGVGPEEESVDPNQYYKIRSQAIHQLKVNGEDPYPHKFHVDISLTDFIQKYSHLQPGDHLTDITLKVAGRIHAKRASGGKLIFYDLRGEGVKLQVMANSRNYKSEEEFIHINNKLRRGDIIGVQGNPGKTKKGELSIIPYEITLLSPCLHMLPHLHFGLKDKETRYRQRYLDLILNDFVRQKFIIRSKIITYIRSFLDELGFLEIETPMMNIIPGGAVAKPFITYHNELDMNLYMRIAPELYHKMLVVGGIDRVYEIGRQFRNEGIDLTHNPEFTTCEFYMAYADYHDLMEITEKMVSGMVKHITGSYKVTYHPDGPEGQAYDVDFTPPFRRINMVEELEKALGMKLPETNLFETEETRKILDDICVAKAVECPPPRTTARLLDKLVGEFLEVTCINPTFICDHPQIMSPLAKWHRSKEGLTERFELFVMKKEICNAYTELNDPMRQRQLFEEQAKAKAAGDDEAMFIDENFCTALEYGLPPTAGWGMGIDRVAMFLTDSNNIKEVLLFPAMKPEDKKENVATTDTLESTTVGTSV

[3] = molecular target: T3, P. falciparum cytosolic lysyl-tRNA synthetase (PfKrs1) (Plasmodium falciparum, UniProt Q8IDJ8); test: Transcreener AMP fluorescence polarization aminoacylation assay with recombinant enzyme; type: biochemical
T3 construct: gene PF3D7_1350100; recombinant PF13_0262, codon-optimized, in pET-28a(+), expressed in E. coli and purified
T3 sequence (Q8IDJ8 entry or part of it): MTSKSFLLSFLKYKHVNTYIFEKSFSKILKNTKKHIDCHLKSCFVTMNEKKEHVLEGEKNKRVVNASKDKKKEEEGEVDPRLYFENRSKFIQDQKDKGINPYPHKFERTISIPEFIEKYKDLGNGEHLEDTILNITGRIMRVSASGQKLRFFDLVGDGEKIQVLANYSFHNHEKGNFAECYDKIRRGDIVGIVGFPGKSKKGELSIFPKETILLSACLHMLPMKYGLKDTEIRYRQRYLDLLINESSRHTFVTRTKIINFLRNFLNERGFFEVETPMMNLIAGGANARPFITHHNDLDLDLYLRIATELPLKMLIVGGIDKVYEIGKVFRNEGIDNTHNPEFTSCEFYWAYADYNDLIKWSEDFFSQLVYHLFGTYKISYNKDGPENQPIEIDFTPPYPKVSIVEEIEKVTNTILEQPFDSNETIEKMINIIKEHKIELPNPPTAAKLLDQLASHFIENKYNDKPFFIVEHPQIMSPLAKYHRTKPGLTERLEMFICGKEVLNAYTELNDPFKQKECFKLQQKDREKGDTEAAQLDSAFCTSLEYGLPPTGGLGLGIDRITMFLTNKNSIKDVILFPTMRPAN

[4] = system: T4, Saccharomyces cerevisiae BY4743Δ8; test: microbe, parasite or virus in culture; design: Yeast growth inhibition, optical density at 600 nm, dose response; details: synthetic media, no added lysine, read-out: Cladosporin IC50 (µM) Synthetic media
T4 construct: BY4743Δ8 (eight drug-resistance genes deleted: SNQ2, PDR5, YOR1, PDR1, PDR2, PDR3, YAP1, YRM1)
Protocol: SUPPLEMENTAL FIGURES Figure S1 | Cladosporin inhibition of S. cerevisiae wild type strain BY4743 and a drug efflux mutant strain BY4743Δ8, related to Figure 1. Yeast growth in the presence of cladosporin was measured by optical density at 600 nm (OD600) and the 30% inhibitory concentration (IC30) and 50% inhibitory concentration (IC50) of cell growth were determined. […] Data were collected from duplicate experiments, normalized with a DMSO control and expressed as the means±SD. A logistic regression curve fit algorithm on the recorded OD600 values was performed to determine the aforementioned IC30 and IC50 values. Strain BY4743Δ8, derived from BY4741 but deleted for eight genes involved in drug resistance (efflux pumps, SNQ2, PDR5, YOR1; transcription factors, PDR1, PDR2, PDR3, YAP1, YRM1) was incubated in 2.5% ethylmethanesulfonate until only 50% of the cells formed colonies. A total of 2 × 10^7 mutagenized CMB970 cells were plated on two 14 cm dishes with synthetic complete medium (0.7 g/l Difco Yeast Nitrogen Base without amino acids, 0.79 g/l MPbio CSM amino acid mixture, 2% glucose) containing 50 μM cladosporin. After 4 days, 37 resistant colonies appeared. […] Of these 37, ten colonies contained nonsynonymous mutations in the KRS1 open reading frame. […] Curves were calculated by taking the 16 hr OD600 measurements and applying a logistic regression curve fit. […]

[5] = system: T4, Saccharomyces cerevisiae BY4743Δ8; test: microbe, parasite or virus in culture; design: Yeast growth inhibition, optical density at 600 nm, dose response; details: rich media, no added lysine, read-out: Cladosporin IC50 (µM) Rich media
Protocol: SUPPLEMENTAL FIGURES Figure S1 | Cladosporin inhibition of S. cerevisiae wild type strain BY4743 and a drug efflux mutant strain BY4743Δ8, related to Figure 1. Yeast growth in the presence of cladosporin was measured by optical density at 600 nm (OD600) and the 30% inhibitory concentration (IC30) and 50% inhibitory concentration (IC50) of cell growth were determined. Assay plates seeded with the respective strains were grown in rich medium and incubated […] against a 12-point dilution series of cladosporin (0-200 µM). Data were collected from duplicate experiments, normalized with a DMSO control and expressed as the means±SD. A logistic regression curve fit algorithm on the recorded OD600 values was performed to determine the aforementioned IC30 and IC50 values. Strain BY4743Δ8, derived from BY4741 but deleted for eight genes involved in drug resistance (efflux pumps, SNQ2, PDR5, YOR1; transcription factors, PDR1, PDR2, PDR3, YAP1, YRM1) was incubated in 2.5% ethylmethanesulfonate until only 50% of the cells formed colonies. […] Of these 37, ten colonies contained nonsynonymous mutations in the KRS1 open reading frame. […] Curves were calculated by taking the 16 hr OD600 measurements and applying a logistic regression curve fit. […]

Compound: CCc1nc(N)nc(N)c1-c1ccc(Cl)cc1 [PYR, pyrimethamine]
- IC50 [1]: > 10000 nM

Compound: C=C[C@H](C)C[C@@H]1NC(=O)[C@H](CC(C)C)N(C)C(=O)[C@H](C(C)C)NC(=O)[C@H]([C@H](OC)c2ccccc2)NC(=O)[C@H](C)NC(=O)[C@H](C[C@@H](C)CO)N(C)C(=O)C[C@@H]([C@H](O)c2cn(C(C)(C)[C@@H]3CO3)c3ccccc23)NC1=O [CycA, cyclomarin A] (cyclo(A[Phe(βR-OMe)]V[NMeL][Nle(4R-Me-5-ene)][X1][NMeLeu(5-OH,4R)]))
- IC50 [1]: 48.8 ± 10.1 nM

Compound: C[C@H]1CCC[C@H](C[C@H]2Cc3cc(O)cc(O)c3C(=O)O2)O1 [cladosporin]
- IC50 [2]: > 20000 nM
- IC50 [3]: 61 nM
- IC50 [4]: 18.4 µM
- IC50 [5]: 7.92 µM

Compound: O=C1C(O)=C([C@H]2CC[C@H](c3ccc(Cl)cc3)CC2)C(=O)c2ccccc21 [ATQ, atovaquone]
- IC50 [1]: 0.8 ± 0.2 nM

Compound: O[C@@H](c1cc(C(F)(F)F)nc2c(C(F)(F)F)cccc12)[C@H]1CCCCN1 (racemic) [MFQ, mefloquine]
- IC50 [1]: 9 nM
